As usually defined, the IC50 is the concentration that gives 50% inhibition.

SMILES strings stand for the structures. Some results are limits rather than exact numbers.

The test system of this assay is MYB mRNA. The assay is described as follows: Gene panel canonical junction qPCR assay, MYB CJ mRNA decrease. Type of assay: cell-based, human. Conditions: Homo sapiens, canonical junction qPCR, read-out: MYB IC50 (decrease in CJ mRNA levels). The method in brief: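 A673 or K562 cells were treated with compound, and lysates underwent cDNA synthesis and qPCR with a CY5 5′-nuclease probe or primer spanning the canonical exon junction. ΔCt versus GAPDH, GUSB or PPIA was normalized to DMSO (2^(−ΔΔCt)), converted to percentage response and fitted four-parameter logistic for IC50.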
(In general: Quantitative PCR measures a nucleic acid by following its amplification.)
Regarding `COc1cnc2c(C(=O)Nc3cc(F)c4nc(C)cn4c3)ccc(N3CCNCC3)c2n1` [Compound 225, N-{8-fluoro-2-methylimidazo[1,2-a]pyridin-6-yl}-2-methoxy-8-(piperazin-1-yl)quinoxaline-5-carboxamide], the IC50 is below 0.1 µM.

In the case of `Cc1cn2cc(NC(=O)c3ccc(N4CCN(CCF)C5(CC5)C4)c4nccnc34)cc(F)c2n1` [Compound 370], the IC50 was in the range of 1 to 10 µM.

For `Cc1cn2cc(NC(=O)c3ccc(C4CCNCC4)c4nccnc34)cc(F)c2n1` [Compound 371], the IC50 was in the range of 0.1 to 1 µM. As for `Cc1cn2cc(NC(=O)c3ccc(N4CCNC5(COC5)C4)c4nccnc34)cc(F)c2n1` [Compound 372], the IC50 is 1 to 10 µM. The same measure for `Cc1cn2cc(NC(=O)c3ccc(N4CCNC5(CCOC5)C4)c4nccnc34)cc(F)c2n1` (stereo not shown) [Compound 373]: 0.1 to 1 µM; for `Cc1cn2cc(NC(=O)c3ccc(N4CCNC5(CCOCC5)C4)c4nccnc34)cc(F)c2n1` [Compound 374]: 0.1 to 1 µM. The same measure for `Cc1cn2cc(NC(=O)c3ccc(C4CCNC5(CC5)C4)c4nccnc34)cc(F)c2n1` (stereo not shown) [Compound 375]: 0.1 to 1 µM. Then `Cc1cn2cc(NC(=O)c3ccc(N4C[C@@H](C)NC5(CC5)C4)c4nccnc34)cc(F)c2n1` [Compound 376], with 0.1 to 1 µM; and `Cc1cn2cc(NC(=O)c3ccc(N4C[C@H](C)NC5(CC5)C4)c4nccnc34)cc(F)c2n1` [Compound 377], with below 0.1 µM; and `COc1ncc2c(N3C[C@@H](C)N[C@@H](C)C3)ccc(C(=O)Nc3cn4cc(C)nc4c(OC)n3)c2n1` [Compound 378], with below 0.1 µM.

Values taken from patent US20240409536A1, “COMPOUNDS AND METHODS FOR MODULATING SPLICING” (REMIX THERAPEUTICS INC., priority 2021, published 2024).
